Assay results published in patent US12466827B2, “1,3,4-oxadiazole derivative compounds as histone deacetylase 6 inhibitor, and the pharmaceutical composition comprising the same” (CHONG KUN DANG PHARMACEUTICAL CORP., priority 2020, dated 2025).

Columns and labels:
[1] = target: T1, human recombinant HDAC1 (Homo sapiens, UniProt Q13547); test: In vitro HDAC enzyme activity inhibition assay (HDAC1); assay type: biochemical; details: Fluor de Lys-SIRT1 substrate 10 μM, 30° C., 60 minutes, fluorescence
T1 construct: purchased Enzo Life Sciences, Inc. BML-SE456
How it was run: (§1)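 Fluorimetric deacetylase kit: human recombinant HDAC1 or HDAC6 (0.3 μg) with 10 μM Fluor de Lys-SIRT1 substrate and 5-fold diluted compounds, 60 min at 30° C. Developer added for 30 min, fluorescence read at Ex 360/Em 460, IC50 calculated.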

[2] = target: T2, human recombinant HDAC6 (Homo sapiens, UniProt Q9UBN7); test: In vitro HDAC enzyme activity inhibition assay (HDAC6); assay type: biochemical; details: for HDAC6 selectivity (fold): HDAC6 over HDAC1; for IC50: same protocol as the HDAC1 test, human recombinant HDAC6 (Calbiochem)
T2 construct: purchased Calbiochem Inc. 382180
T2 sequence (Q9UBN7 1-1215): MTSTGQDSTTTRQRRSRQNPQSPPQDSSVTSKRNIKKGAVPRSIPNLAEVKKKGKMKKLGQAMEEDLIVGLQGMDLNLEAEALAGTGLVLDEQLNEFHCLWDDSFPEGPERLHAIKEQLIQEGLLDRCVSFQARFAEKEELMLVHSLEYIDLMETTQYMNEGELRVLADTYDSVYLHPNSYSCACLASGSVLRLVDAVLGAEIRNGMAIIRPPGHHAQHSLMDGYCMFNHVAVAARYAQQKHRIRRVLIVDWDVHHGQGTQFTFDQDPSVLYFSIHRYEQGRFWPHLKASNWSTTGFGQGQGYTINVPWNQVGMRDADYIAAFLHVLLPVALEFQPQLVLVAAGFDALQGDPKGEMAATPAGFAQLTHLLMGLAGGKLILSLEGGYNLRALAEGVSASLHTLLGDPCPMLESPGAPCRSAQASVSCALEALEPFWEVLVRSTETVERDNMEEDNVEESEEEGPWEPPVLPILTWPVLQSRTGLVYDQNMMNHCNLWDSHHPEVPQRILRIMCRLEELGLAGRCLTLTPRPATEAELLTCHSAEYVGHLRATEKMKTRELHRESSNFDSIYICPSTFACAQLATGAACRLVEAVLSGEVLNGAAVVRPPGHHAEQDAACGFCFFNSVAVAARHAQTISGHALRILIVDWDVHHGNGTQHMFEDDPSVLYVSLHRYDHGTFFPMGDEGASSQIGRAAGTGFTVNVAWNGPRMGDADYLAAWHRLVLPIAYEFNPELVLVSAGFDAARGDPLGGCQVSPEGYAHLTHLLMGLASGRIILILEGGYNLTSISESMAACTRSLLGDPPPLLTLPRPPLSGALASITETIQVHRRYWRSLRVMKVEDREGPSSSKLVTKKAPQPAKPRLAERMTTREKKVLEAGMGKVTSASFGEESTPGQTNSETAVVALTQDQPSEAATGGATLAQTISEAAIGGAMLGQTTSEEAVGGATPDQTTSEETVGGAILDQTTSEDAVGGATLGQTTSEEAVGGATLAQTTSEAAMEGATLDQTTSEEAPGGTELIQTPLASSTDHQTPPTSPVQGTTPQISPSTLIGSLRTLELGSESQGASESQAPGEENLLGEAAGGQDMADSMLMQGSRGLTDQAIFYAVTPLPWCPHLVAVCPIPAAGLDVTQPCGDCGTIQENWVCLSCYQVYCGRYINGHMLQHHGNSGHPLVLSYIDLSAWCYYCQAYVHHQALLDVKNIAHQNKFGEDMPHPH
How it was run: as §1

T1 sequence (Q13547 whole entry): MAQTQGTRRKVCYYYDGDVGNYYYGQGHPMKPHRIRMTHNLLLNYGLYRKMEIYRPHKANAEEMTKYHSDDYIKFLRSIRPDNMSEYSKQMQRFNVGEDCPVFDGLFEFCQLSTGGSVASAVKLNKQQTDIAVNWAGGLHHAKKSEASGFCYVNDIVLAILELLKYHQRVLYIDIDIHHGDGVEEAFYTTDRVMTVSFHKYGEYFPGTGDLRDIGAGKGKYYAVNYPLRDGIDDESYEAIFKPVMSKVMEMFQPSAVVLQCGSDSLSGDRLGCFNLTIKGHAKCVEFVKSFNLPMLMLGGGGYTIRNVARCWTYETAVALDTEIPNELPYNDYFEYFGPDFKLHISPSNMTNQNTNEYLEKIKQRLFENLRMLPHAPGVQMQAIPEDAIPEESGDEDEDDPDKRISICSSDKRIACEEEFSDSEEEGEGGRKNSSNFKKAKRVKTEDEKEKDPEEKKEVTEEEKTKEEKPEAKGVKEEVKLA

SMILES	IC50 [1]	HDAC6 selectivity (fold) [2]	IC50 [2]
O=C(N1CCN(S(=O)(=O)N(Cc2cn3ccc(-c4nnc(C(F)F)o4)cc3n2)c2ccccc2)CC1)C(F)(F)F [Compound 4270, N-((7-(5-(difluoromethyl)-1,3,4-oxadiazol-2-yl)imidazo[1,2-a]pyridin-2-yl)methyl)-N-phenyl-4-(2,2,2-trifluoroacetyl)piperazine-1-sulfonamide]	> 50000 nM	327 fold	153 nM
CS(=O)(=O)N1CCN(S(=O)(=O)N(Cc2cn3ccc(-c4nnc(C(F)F)o4)cc3n2)c2ccccc2)CC1 [Compound 4271, N-((7-(5-(difluoromethyl)-1,3,4-oxadiazol-2-yl)imidazo[1,2-a]pyridin-2-yl)methyl)-4-(methylsulfonyl)-N-phenylpiperazine-1-sulfonamide]	> 50000 nM	215 fold	232 nM
COC(=O)N1CCN(S(=O)(=O)N(Cc2cn3ccc(-c4nnc(C(F)F)o4)cc3n2)c2ccccc2)CC1 [Compound 4272, methyl 4-(N-((7-(5-(difluoromethyl)-1,3,4-oxadiazol-2-yl)imidazo[1,2-a]pyridin-2-yl)methyl)-N-phenylsulfamoyl)piperazine-1-carboxylate]	> 50000 nM	298 fold	168 nM
CN(C)C(=O)N1CCN(S(=O)(=O)N(Cc2cn3ccc(-c4nnc(C(F)F)o4)cc3n2)c2ccccc2)CC1 [Compound 4273, 4—(N-((7-(5-(difluoromethyl)-1,3,4-oxadiazol-2-yl)imidazo[1,2-a]pyridin-2-yl)methyl)-N-phenylsulfamoyl)-N, N-dimethylpiperazine-1-carboxamide]	> 50000 nM	413 fold	121 nM
O=S(=O)(N1CCN(c2ccccn2)CC1)N(Cc1cn2ccc(-c3nnc(C(F)F)o3)cc2n1)c1ccccc1 [Compound 4274, N-((7-(5-(difluoromethyl)-1,3,4-oxadiazol-2-yl)imidazo[1,2-a]pyridin-2-yl)methyl)-N-phenyl-4-(pyridin-2-yl)piperazine-1-sulfonamide]	> 50000 nM	333 fold	150 nM
O=S(=O)(N1CCN(c2ncccn2)CC1)N(Cc1cn2ccc(-c3nnc(C(F)F)o3)cc2n1)c1ccccc1 [Compound 4275, N-((7-(5-(difluoromethyl)-1,3,4-oxadiazol-2-yl)imidazo[1,2-a]pyridin-2-yl)methyl)-N-phenyl-4-(pyrimidin-2-yl)piperazine-1-sulfonamide]	> 50000 nM	351 fold	142 nM
O=S(=O)(N1CCN(C2CCC2)CC1)N(Cc1cn2ccc(-c3nnc(C(F)F)o3)cc2n1)c1cccc(F)c1 [Compound 4301, 4-cyclobutyl-N-((7-(5-(difluoromethyl)-1,3,4-oxadiazol-2-yl)imidazo[1,2-a]pyridin-2-yl)methyl)-N-(3-fluorophenyl)piperazine-1-sulfonamide]	> 50000 nM	595 fold	84.1 nM
O=S(=O)(N1CCN(C2CCCCC2)CC1)N(Cc1cn2ccc(-c3nnc(C(F)F)o3)cc2n1)c1cccc(F)c1 [Compound 4303, 4-cyclohexyl-N-((7-(5-(difluoromethyl)-1,3,4-oxadiazol-2-yl)imidazo[1,2-a]pyridin-2-yl)methyl)-N-(3-fluorophenyl)piperazine-1-sulfonamide]	> 50000 nM	299 fold	167 nM
O=S(=O)(N1CCN(C2CCOCC2)CC1)N(Cc1cn2ccc(-c3nnc(C(F)F)o3)cc2n1)c1cccc(F)c1 [Compound 4304, N-((7-(5-(difluoromethyl)-1,3,4-oxadiazol-2-yl)imidazo[1,2-a]pyridin-2-yl)methyl)-N-(3-fluorophenyl)-4-(tetrahydro-2H-pyran-4-yl)piperazine-1-sulfonamide]	> 50000 nM	832 fold	60.1 nM
O=S(=O)(N1CCN(C2CCC(F)(F)CC2)CC1)N(Cc1cn2ccc(-c3nnc(C(F)F)o3)cc2n1)c1cccc(F)c1 [Compound 4305, 4-(4,4-difluorocyclohexyl)-N-((7-(5-(difluoromethyl)-1,3,4-oxadiazol-2-yl)imidazo[1,2-a]pyridin-2-yl)methyl)-N-(3-fluorophenyl)piperazine-1-sulfonamide]	> 50000 nM	437 fold	114 nM

The remaining lines, values ahead:

IC50 [1]	HDAC6 selectivity (fold) [2]	IC50 [2]	SMILES
> 50000 nM	561 fold	89.2 nM	CN1CCN(S(=O)(=O)N(Cc2cn3ccc(-c4nnc(C(F)F)o4)cc3n2)c2cccc(F)c2)CC1 [Compound 4297, N-((7-(5-(difluoromethyl)-1,3,4-oxadiazol-2-yl)imidazo[1,2-a]pyridin-2-yl)methyl)-N-(3-fluorophenyl)-4-methylpiperazine-1-sulfonamide]
> 50000 nM	631 fold	79.2 nM	CCN1CCN(S(=O)(=O)N(Cc2cn3ccc(-c4nnc(C(F)F)o4)cc3n2)c2cccc(F)c2)CC1 [Compound 4298, N-((7-(5-(difluoromethyl)-1,3,4-oxadiazol-2-yl)imidazo[1,2-a]pyridin-2-yl)methyl)-4-ethyl-N-(3-fluorophenyl)-piperazine-1-sulfonamide]
> 50000 nM	488 fold	102 nM	CC(C)N1CCN(S(=O)(=O)N(Cc2cn3ccc(-c4nnc(C(F)F)o4)cc3n2)c2cccc(F)c2)CC1 [Compound 4299, N-((7-(5-(difluoromethyl)-1,3,4-oxadiazol-2-yl)imidazo[1,2-a]pyridin-2-yl)methyl)-N-(3-fluorophenyl)-4-isopropylpiperazine-1-sulfonamide]
> 50000 nM	410 fold	122 nM	CC(CO)N1CCN(S(=O)(=O)N(Cc2cn3ccc(-c4nnc(C(F)F)o4)cc3n2)c2cccc(F)c2)CC1 (stereo not drawn) [Compound 4300, N-((7-(5-(difluoromethyl)-1,3,4-oxadiazol-2-yl)imidazo[1,2-a]pyridin-2-yl)methyl)-N-(3-fluorophenyl)-4-(1-hydroxypropan-2-yl)piperazine-1-sulfonamide]
> 50000 nM	737 fold	67.8 nM	O=S(=O)(N1CCN(C2COC2)CC1)N(Cc1cn2ccc(-c3nnc(C(F)F)o3)cc2n1)c1cccc(F)c1 [Compound 4302]
> 50000 nM	617 fold	81 nM	CC(=O)N1CCN(S(=O)(=O)N(Cc2cn3ccc(-c4nnc(C(F)F)o4)cc3n2)c2cccc(F)c2)CC1 [Compound 4306, 4-acetyl-N-((7-(5-(difluoromethyl)-1,3,4-oxadiazol-2-yl)imidazo[1,2-a]pyridin-2-yl)methyl)-N-(3-fluorophenyl)piperazine-1-sulfonamide]
> 50000 nM	365 fold	137 nM	CCC(=O)N1CCN(S(=O)(=O)N(Cc2cn3ccc(-c4nnc(C(F)F)o4)cc3n2)c2cccc(F)c2)CC1 [Compound 4307, N-((7-(5-(difluoromethyl)-1,3,4-oxadiazol-2-yl)imidazo[1,2-a]pyridin-2-yl)methyl)-N-(3-fluorophenyl)-4-propionylpiperazine-1-sulfonamide]
> 50000 nM	724 fold	69.1 nM	O=C(CO)N1CCN(S(=O)(=O)N(Cc2cn3ccc(-c4nnc(C(F)F)o4)cc3n2)c2cccc(F)c2)CC1 [Compound 4308, N-((7-(5-(difluoromethyl)-1,3,4-oxadiazol-2-yl)imidazo[1,2-a]pyridin-2-yl)methyl)-N-(3-fluorophenyl)-4-(2-hydroxyacetyl)piperazine-1-sulfonamide]
> 50000 nM	437 fold	114 nM	O=C(C1CCC1)N1CCN(S(=O)(=O)N(Cc2cn3ccc(-c4nnc(C(F)F)o4)cc3n2)c2cccc(F)c2)CC1 [Compound 4309, 4-(cyclobutanecarbonyl)-N-((7-(5-(difluoromethyl)-1,3,4-oxadiazol-2-yl)imidazo[1,2-a]pyridine-2-yl)methyl)-N-(3-fluorophenyl)piperazine-1-sulfonamide]
